Reference: patent US20260091078A1, “OLIGOPEPTIDE THAT INHIBITS ANGIOGENESIS AND VASCULAR FUNCTION” (UNIVERSIDAD NACIONAL AUTONOMA DE MEXICO, priority 2019, published 2026)

What was measured:
Type in all cases: cell-based
[1] = system: human endothelial cells from the umbilical-vein (HUVEC); assay: Formation of capillary structures by HUVEC on Matrigel; conditions: 100 nM, 6 hours
Protocol: For investigating whether the oligopeptide THGRGFI shares this property, a primary culture of human endothelial cells from the umbilical-vein (HUVEC) was maintained in F12K media supplemented with 20% FBS, 100 μg ml^−1 of heparin, and 25 μg ml^−1 endothelial cell growth supplement (ECGS). Cells from passages 2 to 4 were rinsed with tempered PBS1x and were detached from the plate with 0.25% trypsin-EDTA for ˜3 minutes and centrifuged to remove trypsin. The cells were counted using an hemocytometer and seeded at a density of 29,000 cells cm^−2 in 300 μl of F12K medium supplemented with 20% FBS and with heparin on a 24-well plate, over a layer of ˜9.7 μg μl^−1 Matrigel™ which was previously polymerized for 1 hour at 37° C. Cells were then treated with 100 nM vasoinhibin or the oligopeptide THGRGFI, and after 6 hours, micrographs were obtained in an inverted microscope. The images were analyzed to quantify main joining areas per field using the software “Angiogenesis Analyzer” [Gilles Carpentier. ImageJ contribution: Angiogenesis Analyzer. ImageJ News, 5 Oct. 2012.] and the ImageJ software.

[2] = system: human umbilical-vein endothelial cells (HUVEC); assay: Proliferation of HUVEC stimulated with VEGF and bFGF (EdU click assay); conditions: HUVEC, 25 ng ml^-1 VEGF and 20 ng ml^-1 bFGF, 24 hours, 0.001 to 100 nM; read-out: effective dose (EC50) for inhibition of proliferation
Protocol: On a 96-well plate treated for cell culture, BUVEC E6E7 and HUVEC cells were seeded at a density of ˜14,000 and ˜11,000 cells cm^−2, respectively. BUVEC E6E7 cells were maintained in F12K culture media with 10% (v/v) fetal bovine serum (FBS) and the HUVEC in F12K media supplemented with 20% of FBS, 100 μg ml^−1 heparin and 25 μg ml^−1 of endothelial cell growth supplement (ECGS). After 24 hours, the cells were starved with FBS-reduced media (0.1% of FBS for BUVEC E6E7 and 0.5% for HUVEC) for 16 hours to synchronize cells in phase GO of the reproductive cycle. After this time, FBS and heparin were replenished only to HUVEC. The cells were then treated with vasoinhibin or the oligopeptide THGRGFI in concentrations ranging from 0.001 to 100 nM for 24 hours in the presence of 10 μM of the thymidine analog 5-Ethynyl-2′-deoxyuridine (EdU) and 50 ng ml^−1 VEGF for the BUVEC E6E7 or the combination of 25 ng ml^−1 VEGF and 20 ng ml^−1 bFGF for HUVEC. At the end of the experiment, cells were fixed with 4% paraformaldehyde, permeabilized with 0.5% Triton X-100 in TBS1x, and stained to detect the newly synthetized DNA by the incorporation of EdU using the “click” assay (which involves a copper catalyzed reaction to covalently bind fluorescent azide to the EDU incorporated to DNA). Total DNA was counterstained with Hoechst 33342 and the “click”-stained nuclei were quantified and plotted relative to the total number of Hoechst 33342-stained nuclei.
HUVEC were seeded on a 96 well plate at a density of ˜11,000 cells cm^−2 and maintained in F12K supplemented with 20% of FBS, 100 μg ml^−1 heparin and 25 μg ml^−1 endothelial cell growth supplement (ECGS). After 24 hours, the cells were synchronized in GO with starving conditions (FBS 0.5%) for 16 hours, and after that FBS and the heparin were replenished. Cells were then treated with THGRGFI, the different oligopeptides and 123 amino acids vasoinhibin, each in a concentration of 100 nM, for 24 hours in presence or absence of 10 μM of thymidine analog 5-Ethynyl-2′-deoxyuridine (EdU) and a combination of 25 ng ml^−1 VEGF and 20 ng ml^−1 bFGF. Finally, the cells were fixed with 4% paraformaldehyde, permeabilized with 0.5% of Triton X-100 in TBS1x and stained for the newly synthetized DNA with the ‘click’ method that detects the EdU incorporation. Total DNA was stained with Hoechst 33342 and the percentage of ‘click’-stained nuclei relative to total nuclei (Hoechst 33342-stained) indicated cell proliferation.
Approximately 11,000 HUVEC cells cm^−2 were seeded on a 96 well plate in F12K media with 20% FBS, 100 μg ml^−1 heparin and 25 μg ml^−1 ECGS. After 24 hours, cells were starved with 0.5% of FBS for ˜16 hours, and after that time the FBS and heparin were added again and cells treated with different doses of the alanine substituted oligopeptides for 24 hours, in the presence of EdU and a combination of 25 ng ml^−1 VEGF and 20 ng ml^−1 bFGF. Finally, the cells were fixed, permeabilized and stained to quantify the synthesis of DNA as a sign of proliferation.

[3] = system: primary cells from the human umbilical vein (HUVEC); assay: Transwell Matrigel invasion of HUVEC stimulated with VEGF; conditions: 100 nM, VEGF 50 ng mL^-1, 24 hours
Protocol: (§1) Endothelial cells were seeded over 100 μl Matrigel™ matrix (380 ng μl^−1) on a permeable ‘transwell’ support in a transwell chamber having an area of 0.33 cm^2 and 8 μm of pore-diameter at a density of 30,000 and 14,000 cells cm^−2 for BUVEC E6E7 and HUVEC cells, respectively. In the upper (luminal) compartment the cells were maintained with starving media F12K having 0.1 or 0.5% FBS for BUVEC E6E7 and HUVEC, respectively. In addition, HUVEC cells were maintained with 100 μg ml^−1 heparin. […] After 24 hours the media from both compartments and the luminal cells were removed. The abluminal cells were fixed with 100% MeOH for 10 minutes, permeabilized with TBS1x-0.5% Triton X-100, and stained with Hoechst 33342. The total number of cells in the abluminal compartment indicates the invasive activity of endothelial cells.
(§2) The inhibitory effect of 100 nM of the oligopeptide THGRGFI on the invasion of immortalized endothelial cells from the bovine umbilical vein (BUVEC E6E7) (FIG. 3A) or primary cells from the human umbilical vein (HUVEC) (FIG. 3B) stimulated in each case with VEGF (50 ng mL^−1) was compared with the inhibitory effect of 100 nM of the 123 amino acid vasoinhibin (***P<0.001).

[4] = system: immortalized endothelial cells from the bovine umbilical vein (BUVEC E6E7); assay: Transwell Matrigel invasion of BUVEC E6E7 stimulated with VEGF; conditions: BUVEC E6E7, 100 nM, VEGF 50 ng mL^-1, 24 hours
Protocol: as §1, §2

With “Ac-THGRGFI-NH2 [THGRGFI, Thr His Gly Arg Gly Phe Ile]” the “effect on capillary structures (main joining areas per field)” value [1] was “disrupted the capillary structures”, the EC50 [2] was about 1 nM and the “inhibition of invasion of endothelial cells” value [3] was “significatively inhibited”. For the same substance, the “inhibition of invasion of endothelial cells” value [4] was “significatively inhibited”.
